Experimental data reported in patent publication US4798844A, “Chemotherapeutant composition” (Shikoku Chemicals Corporation, priority 1987, dated 1989).
Structures can show the parent of a compound that is named as a salt.

Key:
Trichophyton tonsurans = experiment: Antimicrobial activity to pathogenic true fungi (MIC); assay type: cell-based; conditions: Sabourauds agar medium, 25° C., 7 to 14 days
Experimental: (§1) A true fungus shown in Table 1 was cultured in Sabourauds agar medium at 25° C. for 7 to 14 days, and the minimum inhibitory concentration (MIC value, μg/ml) was determined.

[1] = tested on: Trichophyton mentagrophytes; experiment: as above; assay type: cell-based; conditions: Sabourauds agar medium, 25° C., 7 to 14 days
Experimental: as §1

Aspergillus niger = experiment: as above; assay type: cell-based; conditions: Sabourauds agar medium, 25° C., 7 to 14 days
Experimental: as §1

Candida albicans [2] = experiment: as above; assay type: cell-based; conditions: Sabourauds agar medium, 25° C., 7 to 14 days
Experimental: as §1

Aspergillus fumigatus = experiment: as above; assay type: cell-based; conditions: Sabourauds agar medium, 25° C., 7 to 14 days
Experimental: as §1

Microsporum gypseum = experiment: as above; assay type: cell-based; conditions: Nannizzia gypsea; Sabourauds agar medium, 25° C., 7 to 14 days
Experimental: as §1

Trichophyton rubrum = experiment: as above; assay type: cell-based; conditions: Sabourauds agar medium, 25° C., 7 to 14 days
Experimental: as §1

[3] = tested on: Trichophyton mentagrophytes; experiment: Curative effect to trichophytosis; assay type: in vivo, guinea pig; conditions: for Number of Colonies in Skin Pieces after 3 days' stoppage of administration: 10 days, then 3 days stopped, control 3.4 × 10^3; for Number of Colonies in Skin Pieces after 10 days' administration: control 4.1 × 10^3
Description: A guinea pig was skin-infected with Trichophyton mentagrophytes, and after two days had passed from the infection, the compound obtained in Example 1 was orally administered in the form of a suspension in gum arabic once a day for 10 days and the pharmaceutical effect was examined. Then, the administraion of the compound was stopped for 3 days and the recovery state was examined.

skin = experiment: Primary irritation to skin; assay type: in vivo, rabbit
Description: It is seen that the compound is a non-irritating substance.

[4] = Migration in blood after oral administration; assay type: in vivo; conditions: rat, oral 300 mg/kg; for Concentration in Blood: gum arabic suspension, compound bonded with small blood protein (fraction MW 10,000)
Experimental: The compound obtained in Example 1 was orally administered at a dose of 300 mg/kg in the form of a suspension in gum arabic to a rat, and the change of the concentration in blood was examined by the high-speed liquid chromatography.
Each value is the concentration of the compound bonded with a blood protein having a small molecular weight (fraction molecular weight=10,000).

mouse = experiment: Acute toxicity (oral LD50); assay type: in vivo
Description: (§2) It is seen that the actue toxicity of the compound is very low.

[5] = Acute toxicity (oral LD50); assay type: in vivo; conditions: mouse, in vivo, po, LD50 Value
Description: as §2

Candida albicans [6] = experiment: Curative effect to candidiasis; assay type: in vivo, mouse; conditions: after two days; for Survival Ratio: 1.4 hours after infection, control 0/3
Experimental: A mouse was infected with Candida albicans, and when 1.4 hours had passed from the infection, the compound obtained in Example 1 was orally administered in the form of a suspension in gum arabic. After two days, the pharmaceutical effect was examined.

Streptococcus faecalis = experiment: Antimicrobial activity to pathogenic bacteria (MIC, agar plate dilution); assay type: cell-based; conditions: Enterococcus faecalis, Japanese Chemotherapeutic Association
Experimental: (§3) The minimum inhibitory concentrations to pathogenic bacteria shown in Table 2 were determined by the agar plate dilution process according to the standard method of the Japanese Chemotherapeutic Association.

Bacillus subtilis = experiment: as above; assay type: cell-based; conditions: Japanese Chemotherapeutic Association
Experimental: as §3

Streptococcus pyogenes = experiment: as above; assay type: cell-based; conditions: Japanese Chemotherapeutic Association
Experimental: as §3

Staphylococcus aureus = experiment: as above; assay type: cell-based; conditions: Japanese Chemotherapeutic Association
Experimental: as §3

## O=C(C(=Cc1ccc(Cl)cc1Cl)n1ccnc1)c1ccc(Cl)cc1 [Example 1, 1-(4-chlorophenyl)-2-(1H-imidazolyl)-3-(2,4-dichlorophenyl)-2-propen-1-onehydrochloride]
Trichophyton tonsurans
  MIC: < 1.25 µg/mL
[1]
  MIC: < 1.25 µg/mL
Aspergillus niger
  MIC: 3.12 µg/mL
Candida albicans [2]
  MIC: < 6.25 µg/mL
Aspergillus fumigatus
  MIC: 3.12 µg/mL
Microsporum gypseum
  MIC: < 1.25 µg/mL
Trichophyton rubrum
  MIC: < 1.25 µg/mL
[3]; 50 mg/kg oral once a day
  Number of Colonies in Skin Pieces after 3 days' stoppage of administration: annihilated
  Number of Colonies in Skin Pieces after 10 days' administration: annihilated
[3]; 100 mg/kg oral once a day
  Number of Colonies in Skin Pieces after 3 days' stoppage of administration: annihilated
  Number of Colonies in Skin Pieces after 10 days' administration: annihilated
skin; in words
  primary irritation to skin: non-irritating
skin; rabbit, coating concentration 100%
  Primary Irritation Ratio: 0.72
[4]; 0 hours
  Concentration in Blood: 0 ng/mL
[4]; 2 hours
  Concentration in Blood: 1200 ng/mL
[4]; 4 hours
  Concentration in Blood: 2970 ng/mL
[4]; 6 hours
  Concentration in Blood: 9070 ng/mL
[4]; 8 hours
  Concentration in Blood: 4260 ng/mL
[4]; 12 hours
  Concentration in Blood: 5620 ng/mL
[4]; 24 hours
  Concentration in Blood: 1500 ng/mL
[4]; suspension in gum arabic
  time to maximum concentration in blood: within several hours
mouse; in vivo, po
  LD50 Value: 3100 mg/kg
mouse; oral, in words
  acute toxicity: very low
[5]
  LD50: 2950 mg/kg
Candida albicans [6]; 50 mg/kg oral
  Survival Ratio: 1/3
  Number of Living Cells in Kidney of Survivor Mouse: substantially annihilated
Candida albicans [6]; 100 mg/kg oral
  Survival Ratio: 2/3
Streptococcus faecalis
  MIC: 3.12 µg/mL
Bacillus subtilis
  MIC: 3.12 µg/mL
Streptococcus pyogenes
  MIC: 3.12 µg/mL
Staphylococcus aureus
  MIC: 1.56 µg/mL
